Reference: PubChem BioAssay (NCI)
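Values below derive from 48-hour exposures of cells grown in 96-well plates, with endpoints linearly interpolated between the two concentrations bracketing the appropriate inhibition level. TGI is the concentration that stops growth completely.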

Key:
Experiment in all cases: inhibition of tumour cell growth, NCI panel, 48 h
[1] = system: UACC-257 melanoma
[2] = system: HOP-62 NSCLC
[3] = system: NCI-H522 lung
[4] = system: DU-145 prostate
[5] = system: SF-539 CNS
[6] = system: SK-MEL-5 melanoma
[7] = system: SF-295 CNS
[8] = system: SW-620 colon
[9] = system: IGROV1 ovarian
[10] = system: CCRF-CEM leukemia

Row | Compound | TGI [1] [µM] | TGI [2] [µM] | TGI [3] [µM] | TGI [4] [µM] | TGI [5] [µM] | TGI [6] [µM] | TGI [7] [µM] | TGI [8] [µM] | TGI [9] [µM] | TGI [10] [µM]
1 | CN(C)CC(C)(C)CN1c2ccccc2Sc2ccccc21 | 24.7 | 25.5 | 25.9 | 24.8 | 34.3 | 29.4 | 26.8 | 28.3 | 28.1 | 
2 | C=CCOCn1cnc2c(=O)[nH]c(N)nc21 |  | > 100 |  | > 100 | > 100 | > 100 | > 100 | > 100 | > 100 | > 100
3 | Nc1ccc(C2SCC(=O)N2NS(=O)(=O)c2cccc(C(=O)O)c2)cc1 (stereo not given) | > 100 | > 100 | > 100 | > 100 | > 100 | > 100 | > 100 | > 100 | > 100 | > 100
4 | NC(CSCSCC(N)C(=O)O)C(=O)O (stereo not given) | > 225 | > 225 | > 225 |  | > 225 | > 225 | > 225 | > 225 | > 225 | > 71.2
5 | C/C(CCN(C)C)=N\OC(=O)c1ccccc1 | > 100 | > 100 | > 100 |  | > 100 | > 100 | > 100 | > 100 | > 100 | > 100
6 | COc1ccc(C=O)cc1OS(=O)(=O)C(F)(F)C(F)(F)C(F)(F)C(F)(F)F | > 100 | > 79.8 | > 60.1 | > 100 | 41 | 30.8 | 53 | > 87.4 | > 67.5 | 63.1
7 | COC(=O)[C@H](Cc1ccccc1)NC(=O)N(CCNC(=O)OC(C)(C)C)c1ccccc1 |  | > 100 | > 100 | > 100 |  | > 100 | > 100 | > 100 | > 100 | > 100
8 | O=C(NC(OCc1ccccc1)(C(F)(F)F)C(F)(F)F)OCc1ccccc1 | 27.3 | 28.4 | 26.5 | 30.3 | 31.1 | 29.3 | 31.4 | 31.1 | 28.6 | 34.9
9 | Cn1c(=O)n(C2(C)CSC2)c2ccccc21 | > 100 | > 100 | > 100 |  | > 100 | > 100 | > 100 | > 100 | > 100 | > 100
10 | CCOC(=O)c1cc([N+](=O)[O-])c(Sc2ncnc3nc[nH]c23)c([N+](=O)[O-])c1 | 20.6 | 24.8 | 2.34 | 29.2 | 13.4 | 23 | > 35.6 | 5.25 | 13.7 | 4.39
11 | OCC1OC(n2cnc3c(Cl)nc(Nc4ccc(Cl)c(Cl)c4)nc32)CC1O (stereo not given) | 20 | 23 | 18.1 | 48.6 |  | 16.9 | 19.3 | 27.5 | 27.8 | 18.1
12 | CCOC(=O)CC1Nc2ccccc2C12CCc1c([nH]c3ccccc13)C2C(=O)OCC (stereo not given) | > 100 | > 100 | > 100 | > 100 | > 100 | > 100 | 22.5 | > 100 | 61.7 | > 100
13 | C/C(=N\O)c1cccc(Nc2c3ccccc3nc3occc23)c1 | > 100 | 17.5 | 4.83 | 59.2 | 21.1 | > 100 | 26.7 |  | 13.2 | > 100
14 | C[C@@H](c1ccccc1)N1CO[C@@]2(C#Cc3ccc4c(c3)OCO4)CCC[C@@H]12 | 38.2 | 29.3 |  | 29.7 |  | 25.8 | 28.1 |  | 22.9 | > 100
15 | COc1ccc(/C=C/C(=O)CCN2CCN(CCC(=O)/C=C/c3ccc(OC)cc3)CC2)cc1 | 29.1 | 49.7 |  | 71.1 | 19.1 | 32 | 20.8 | 19.7 | 25.9 | 
16 | CC(C)[Si](Oc1ccc(CC2N(C(=O)c3ccc([N+](=O)[O-])cc3)C(CCc3ccccc3)CC2(C)C=O)cc1)(C(C)C)C(C)C (stereo not given) | > 100 | 31.5 | > 100 | > 100 | 23.2 |  | > 100 |  | > 100 | > 100
17 | COC(=O)c1c2c(cc3c1CC1(C3)Cc3cc4c(c(C(=O)OC)c3C1)CCC4)CCC2 | > 100 | > 100 | > 100 |  | > 100 | > 100 | > 100 |  | > 100 | > 100
18 | O=C(Nc1ccc(F)cc1)c1cc2c(cc1Cl)Sc1nccn1S2(=O)=O |  | 92.9 | > 100 | > 100 | > 100 | > 100 | > 100 | > 100 | > 100 | > 100
19 | COc1ccc(Nc2cc(=O)[nH]c(=O)[nH]2)cc1 | > 100 | > 100 |  | > 100 | > 100 | > 100 | > 100 | > 100 | > 100 | > 100
20 | CC(C)(C)CI | 51.6 |  | 45.2 |  | > 100 | 30.9 | 33.9 | 36.1 | > 100 | 50.8
21 | Cn1c(=S)[nH]c(N)c(Cc2ccccc2)c1=O | > 100 | > 100 |  | > 100 | > 100 | > 100 | > 100 | > 100 | 68.4 | > 100
22 | CC(=O)Oc1cc(-c2oc3cc(OC(C)=O)c(C4OC(CO)C(O)C(O)C4O)c(OC(C)=O)c3c(=O)c2O)c(OC(C)=O)cc1O (stereo not given) | > 100 | > 100 | > 100 | > 100 |  | > 100 | > 100 | > 100 | > 100 | > 100
23 | O[C@@]12Cc3c([nH]c4ccccc34)[C@@H]3Oc4c(-c5ccccc5)ccc5c4[C@@]31CCN(CC1CC1)[C@@H]2C5 | 3.45 | 3.06 | 3.36 |  |  | 3.25 | 3.5 | 4.61 | 15 | 7.56

Row | Compound | TGI [1] [µM] | TGI [2] [µM] | TGI [3] [µM] | TGI [4] [µM] | TGI [5] [µM] | TGI [6] [µM] | TGI [7] [µM] | TGI [8] [µM] | TGI [9] [µM] | TGI [10] [µM]
24 | Cc1ccc(S(=O)(=O)Nn2c(S)c(C#N)c(-c3ccc(Cl)cc3)c(C#N)c2=O)cc1 | > 100 |  | 37.4 | > 100 | 39.6 | 42.2 | > 100 | 51.7 | 59.4 | > 100
25 | Cc1c(C#N)c2nc3ccccc3n2c(=O)/c1=C/Nc1ccc(Cl)cc1 | > 100 | 33.1 | > 100 |  | 30.5 | > 100 | 61.5 | > 100 | > 100 | 
26 | O=C1N[C@H](C(=O)O)[C@@H](c2ccc(OCc3ccccc3)cc2)O1 | > 100 | 33.2 | > 100 | > 100 |  | > 100 | 79.6 | > 100 | 78.6 | > 100
27 | CC#CC#C/C=C1\C=CC2(OC=CC2O)O1 (stereo not given) | > 23.3 | > 23.3 | > 20.3 |  | > 23.3 | > 23.3 | > 23.3 | > 23.3 | > 23.3 | > 21.1
28 | S=C(S)NCCN1CCNCC1 | 59 | > 100 | 32.7 | > 100 |  | > 100 | > 100 | > 100 | > 100 | > 100
29 | Cn1c(=O)cc(Nc2ccc(N)cc2)[nH]c1=O | > 100 | > 100 | > 100 |  | > 100 | > 100 | > 100 | > 100 | > 100 | > 100
30 | CC/C=C\C=C/C(=O)N/C=C/CCC | > 100 | > 100 | 36 | > 100 | > 100 |  |  | > 100 | > 100 | > 100
31 | CC(C)C(CCOS(=O)(=O)O)CCC(C)[C@H]1[C@@H](O)C(O)C2[C@]3(O)C[C@@H](O)C4(O)C[C@@H](O)CC[C@]4(C)C3CC[C@@]21C (stereo not given in full) |  | > 100 | > 100 |  | > 100 | > 100 | > 100 | > 100 | > 100 | > 100
32 | COc1cc(C(c2ccc3c(c2)OCO3)C2SCCCS2)cc(OC)c1OC (stereo not given) | > 100 | > 100 | 5.87 | 8.59 |  | 9.21 | 4.66 | 33 | 8.17 | 3.56
33 | CC(C)C(/C=C/c1ccc(Cl)cc1)=N\NC(=O)N/N=C(/C=C/c1ccc(Cl)cc1)C(C)C | > 100 | 47.3 |  | > 100 | 31.2 | > 100 | 45.2 | > 100 | 94.7 | > 100
34 | CC(=O)OCC1OC(O[C@H]2C=C[C@@H](C(=O)OCc3ccccc3)n3c(=O)n(-c4ccccc4)c(=O)n32)C(OC(C)=O)C(OC(C)=O)C1OC(C)=O (stereo not given in full) | 3.73 |  | 2.83 | 8.47 | 3.21 | 5.66 | 25.3 | 17 | 6.13 | > 19.9
35 | [O-][N+]1=C2CCC/C(=N/O)C2(O)C2CCCCC21N1CCOCC1 (stereo not given) | > 100 | > 100 | > 100 |  | > 100 | > 100 | > 100 | > 100 | > 100 | > 100
36 | CC1(C)N([O-])[N+](=O)C1(C)O (stereo not given) | > 100 |  | > 100 | > 100 | > 100 | > 100 |  | > 100 | > 100 | > 100
37 | c1ccc2c(c1)-c1ccccc1C2NC1=NCCO1 |  | 46.5 | 51.4 | > 100 | 49.6 | 29.1 | > 100 | > 100 | 40.3 | > 100
38 | O=C(Nc1ccc(Cl)cc1)c1cc(S(=O)(=O)N2CCNNC2=O)c(S)cc1Cl | > 100 |  | > 100 | > 100 | > 100 | > 100 | > 100 | > 100 | > 100 | > 100
39 | COc1cccc(/C=N/[N-]C(N)=O)c1[O-].[Co+2].[OH3+].c1ccncc1 | > 100 | > 100 | > 100 |  | > 100 | > 100 | > 100 | > 100 | > 100 | > 100
40 | C=C(C)CCC(O)[C@](C)(O)[C@H]1[C@H](O)C[C@@]2(C)[C@@H]3CCc4c(cc(OC5OC(CO)C(O)C(O)C5O)c(O)c4C)C3(C)C(=O)C[C@]12C (stereo not given in full) | > 100 | > 100 | > 100 | > 100 | > 100 |  | > 100 | > 100 | > 100 | > 100
41 | O=CC1OC(=O)c2cc(O)c(O)c(O)c2-c2c(cc(O)c(O)c2O)C(=O)OC1C1OC(=O)c2cc(O)c(O)c(O)c2-c2c(O)c(O)c3oc(=O)c4c(c(O)c(O)c5oc(=O)c2c3c54)-c2c(cc(O)c(O)c2O)C(=O)OCC1O (stereo not given) | > 100 | > 100 | 85.7 | > 100 |  | > 100 | 89.4 | 47.7 | > 100 | > 100
42 | C[C@@H]1CC[C@@]2(C)[C@H](C)/C(=C\COC(=O)/C=C/c3ccc(O)c(O)c3)CC[C@@]12C | 24.1 | 28.8 | 3.12 | 23.4 | 16.2 | 17 | 23.2 | 23.6 | 22.6 | 
43 | COc1ccc(CNc2nc3cc(C(F)(F)F)ccc3nc2C(=O)O)cc1 | > 100 | 55.5 |  | > 100 | 49.2 | 32.1 | > 100 | > 100 | > 100 | > 100
44 | C#CCn1c(=O)ccn(/C(=C/C(=O)OCC)C(=O)OCC)c1=O | 29.6 | 31.8 |  | 30.7 | 3.99 | 31 | > 60.5 |  | 13.8 | 6.35
45 | CCCC(C(=O)OC)C1N=C(NC#N)N(Cc2ccccc2)C1=O (stereo not given) | > 100 | > 100 | > 100 |  |  | > 100 | > 100 | > 100 | > 100 | > 100
